From patent US20200000099A1 (priority 2017, published 2020) come the findings set out here.

The subject of this test is Xylella fastidiosa (Xf). The class given is cell-based. Particulars: crude ethyl acetate extract of culture supernatant; activity traced to metabolite by NMR and MS.

Turning to `C/C=C/c1cc2c(c(=O)o1)C(=O)[C@@H](O)[C@H](C)O2` [radicinin], the “anti-Xf activity of extract / metabolite” value is “inhibitory activity”.
